# Data taken from patent US5514662A, “Use of amphotericin B derivatives as protease inhibitors” (priority 1991, dated 1996).
# Columns and labels:
# [1] = test system: HIV; experiment: Viral expression in reactivated infected CD4 cells from patients (p24 ELISA); assay type: cell-based; settings: Human immunodeficiency virus 1, 240 h, 7 patients tested
# From the text: The activation of infected CD4+cells is known to stimulate the production of the virus. The effect of DABF-AmB was therefore tested on the vital expression in cells from AIDS patients reactivated in vitro by anti-CD3, by anti-CD28, by PMA (phorbol myristate acetate) or by soluble anti-CD3.
# PBMCs from patients (<300 CD4) were isolated on a Ficoll gradient using blood. The CD4 cells were isolated by cell sorting using a flow cytometer (FACS-Star, Becton-Dickinson, Mountain View, Calif.) after OKT4-FITC labelling. The CD4 cells were washed again and then re-inoculated as indicated in 5 and activated either with anti-CD3 or anti-CD28 antibodies or with PMA. Viral expression was evaluated after 10 days by ELISA assay of p24 in the supernatants.
# [2] = test system: gp120; experiment: Membrane expression of gp120 in HIV-1 infected Jurkat and CEM cells; assay type: cell-based; settings: 10 μM continuous, both cell lines, 8th day
# Experimental: Membrane expression of CD4 and gp120 is measured by means of the monoclonal antibodies OKT4 (0,5 μg/ml), 110-4 (2 μg/ml) respectively, which are stained using a […].
# The fluorescence is measured by means of a FACSTAR cell counter (BECTON DICKINSON, MOUNTAIN VIEW, Calif.). The results are expressed as mean fluorescence intensity.
# The anti-gpl10 monoclonal antibody 110-4 (GENETIC SYSTEMS CORP., Seattle, Wash.) also recognizes gP120 at the surface of the T cells.
# Immunofluorescence analyses are carried out on the 8th day of the infection in order to verify whether the inhibition of HIV replication by DABF-AmB results in 10 a reduced membrane expression of viral antigens.
# [3] = test system: kallicrein; experiment: Activity of DABF-AmB on various proteases: kallicrein; assay type: biochemical; settings: 1 μM, results not shown
# Experimental: (§1) DABF-AmB was tested, at a concentration of 1 μM, on various proteases (papain, chymotrypsin, kallicrein, leucocyte elastase, cathopsin D and recombinant protease p10) under conditions and in the presence of substrates appropriate for each of the proteases tested.
# [4] = test system: SIVmac251; experiment: Formation of syncytia in HUT78 cells infected with SIVmac251; assay type: cell-based, SIV
# Experimental: HUT78 cells were inoculated in 96-well plates in an amount of 2×10^4 cells per well, in […]. They were infected with various viral concentrations and DABF-AmB was added immediately after the infection, at various concentrations. The formation of syncytia was evaluated after 3 and 5 days by direct reading under an inverted microscope (semi-quantitative test).
# [5] = test system: LTR of HIV; experiment: Early phases of HIV infection: transactivation of LTR-LacZ in CD4 HeLa cells (blue colonies); assay type: cell-based, HIV-1; settings: 10 μM, 24 hours after infection
# Experimental: HeLa cells transfected with the CD4 gene and capable of being infected by HIV, carrying the bacterial gene LacZ placed under the control of the LTR of HIV ROCANCOURT et al., J. Virol., 64:2660-2668, (1990)!, were infected with HIV-1BRU. […] This detection was carried out after fixing the cells by incubating for one hour in-the presence of 5-bromo-4-chloro-3-indoyl-β-D-[…] and enzyme substrate.
# [6] = test system: leucocyte elastase; experiment: Activity of DABF-AmB on various proteases: leucocyte elastase; assay type: biochemical; settings: 1 μM
# Experimental: as §1
# [7] = test system: HIV-1; experiment: Reverse transcriptase activity in HIV-1 infected PBMCs; assay type: cell-based
# Experimental: The T cells (Jurkat and CEM) used are very permissive to HIV infection. They are cultured in RPMI 1640 medium supplemented with 10% foetal calf serum, 2 mM of glutamine and a mixture of penicillin and streptomycin. The peripheral blood mononuclear cells are obtained from blood from healthy donors, isolated on a Ficoll Hypaque gradient and stimulated with 10 μg/ml of phytohaemagglutinin A (PHA), for two days, in RPMI 1640 medium supplemented, prior to the infection by HIV, with amikacin and vancomycin (10 mg/ml), polybrene (1 mg/ml) and anti-interferon gamma serum (5 U/ml). After infection, the PBMCs are cultured (10^5 per well) in flat-bottomed 96-well plates in the same RPMI 1640 medium (200 μl per well).
# The PBMCs cells (2×10^6 /ml) are infected with the same viruses and under the same conditions as the Jurkat or CEM cells. They are then washed and resuspended in fresh culture medium in flat-bottomed 96-well plates (10^5 cells per well in […]).
# The reverse transcriptase activity is determined at the indicated times using the culture supernatant, according to the procedure described by REY et al., Biochem. Res. Comm. 121, 126-133 (1984).
# PBMCs isolated from healthy individuals are infected with HIV-1. The production of antigen p24 as well as the reverse transcriptase activity can be detected in the supernatants of cultures infected 3 days after the infection. The maximum reverse transcriptase activity and p24 synthesis are observed between the 6th and 7th day, and the 5th and 6th day respectively. No cell death is observed at this time.
# The infected PBMCs are treated continuously as described above for the Jurkat and CEM cells, using increasing concentrations of DABF-AmB.
# The effect of DABF-AmB on the reverse transcriptase activity and on the secretion of p24 is evaluated on the 6th day.
compound,measurement,setting,value
"C[C@@H]1[C@H](O)[C@@H](C)/C=C/C=C/C=C/C=C/C=C/C=C/C=C/[C@H](O[C@@H]2O[C@H](C)[C@@H](O)[C@H](NCC(=O)[C@@H](O)[C@@H]3OC(c4ccccc4)OC[C@H]3O)[C@@H]2O)C[C@@H]2O[C@](O)(C[C@@H](O)C[C@@H](O)[C@H](O)CC[C@@H](O)C[C@@H](O)CC(=O)O[C@H]1C)C[C@H](O)[C@H]2C(=O)O (stereo partly drawn) [DABF-AmB, 1-deoxy-1-amino-4,6-O-benzylidene-D-fructosyl-AmB]",inhibition at 10 µM,[1],> 90%
same,membrane expression of gp120,[2],substantially reduces
same,inhibition of kallicrein,[3],inhibits
same,formation of syncytia,"[4]; 0.1 μM, 10 TCID50, 3 days",-
same,formation of syncytia,"[4]; 0.1 μM, 10 TCID50, 5 days",+
same,formation of syncytia,"[4]; 0.1 μM, 100 TCID50, 3 days",+
same,formation of syncytia,"[4]; 0.5 μM, 10 TCID50, 3 days",-
same,formation of syncytia,"[4]; 0.5 μM, 10 TCID50, 5 days",+
same,formation of syncytia,"[4]; 0.5 μM, 100 TCID50, 3 days",+
same,formation of syncytia,"[4]; 1 μM, 10 TCID50, 3 days",-
same,formation of syncytia,"[4]; 1 μM, 10 TCID50, 5 days",+
same,formation of syncytia,"[4]; 1 μM, 100 TCID50, 3 days",+
same,formation of syncytia,"[4]; 5 μM, 10 TCID50, 3 days",-
same,formation of syncytia,"[4]; 5 μM, 10 TCID50, 5 days",- and +
same,formation of syncytia,"[4]; 5 μM, 100 TCID50, 3 days",- and +
same,formation of syncytia,"[4]; 5 μM, 100 TCID50, 5 days",- and +
same,formation of syncytia,"[4]; 5 μM, 500 TCID50, 3 days",- and +
same,formation of syncytia,"[4]; 5 μM, 500 TCID50, 5 days",+ and -
same,formation of syncytia,"[4]; 10 μM, 10 TCID50, 3 days",-
same,formation of syncytia,"[4]; 10 μM, 10 TCID50, 5 days",-
same,formation of syncytia,"[4]; 10 μM, 100 TCID50, 3 days",-
same,formation of syncytia,"[4]; 10 μM, 100 TCID50, 5 days",- and +
same,formation of syncytia,"[4]; 10 μM, 500 TCID50, 3 days",-
same,formation of syncytia,"[4]; 10 μM, 500 TCID50, 5 days",- and +
same,formation of syncytia,"[4]; 50 μM, 10 TCID50, 3 days",-
same,formation of syncytia,"[4]; 50 μM, 100 TCID50, 3 days",-
same,formation of syncytia,"[4]; 50 μM, 100 TCID50, 5 days",-
same,formation of syncytia,"[4]; 50 μM, 500 TCID50, 3 days",-
same,formation of syncytia,"[4]; 50 μM, 500 TCID50, 5 days",-
same,formation of syncytia,"[4]; 100 μM, 10 TCID50, 5 days",-
same,formation of syncytia,"[4]; 100 μM, 100 TCID50, 3 days",-
same,formation of syncytia,"[4]; 100 μM, 100 TCID50, 5 days",-
same,formation of syncytia,"[4]; 100 μM, 500 TCID50, 3 days",-
same,formation of syncytia,"[4]; 100 μM, 500 TCID50, 5 days",-
same,inhibition of formation of syncytia (in words),"[4]; HUT78, SIV",in a dose-dependent manner
same,inhibition of appearance of blue colonies,[5],completely inhibits
same,inhibition of leucocyte elastase,[6],inhibits
same,inhibition at 10 µM,"[7]; Human immunodeficiency virus 1, PBMC, 144 h, PBMCs, 10 μM, 6th day, N=3",92 ± 4%
same,increase in the anti-HIV action in PBMCs,[7]; concentrations above 20 μM,do not bring about a significant increase
same,anti-HIV inhibition in PBMCs (in words),[7]; concentrations below 1 μM,only a low inhibition
